In US8957064B2, “Fused pyrimidines” (Bayer Intellectual Property GmbH, priority 2009, dated 2015):

How the values were obtained:
[1] = molecular target: His-tagged human recombinant kinase full-length Akt2 activated by PDK1 (Homo sapiens (Human), UniProt P31751); assay: Akt2 kinase assay (Akt2 TR-FRET assay, Biological Assay 2.0); assay type: biochemical; settings: 10 μM ATP, 1 μM biotinylated peptide substrate, 60 min at 22° C.
How it was run: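 Compound was pre-incubated with enzyme (~0.2 ng/µl final) for 15 min at 22 °C in Tris pH 7.5, 5 mM MgCl2, then reacted 60 min with 10 µM ATP and 1 µM biotinylated peptide. Phosphopeptide was detected by TR-FRET (665/622 nm ratio). Data were normalised to no-inhibitor (0%) and no-enzyme (100%) controls.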

[2] = molecular target: His-tagged human recombinant kinase full-length Akt1 (Homo sapiens (Human), UniProt P31749); assay: Akt1 kinase assay (Akt1 TR-FRET assay, Biological Assay 1.0); assay type: biochemical; settings: 10 μM ATP, 1 μM biotinylated peptide substrate, 60 min at 22° C.
Sequence of His-tagged human recombinant kinase full-length Akt1 (P31749 whole entry): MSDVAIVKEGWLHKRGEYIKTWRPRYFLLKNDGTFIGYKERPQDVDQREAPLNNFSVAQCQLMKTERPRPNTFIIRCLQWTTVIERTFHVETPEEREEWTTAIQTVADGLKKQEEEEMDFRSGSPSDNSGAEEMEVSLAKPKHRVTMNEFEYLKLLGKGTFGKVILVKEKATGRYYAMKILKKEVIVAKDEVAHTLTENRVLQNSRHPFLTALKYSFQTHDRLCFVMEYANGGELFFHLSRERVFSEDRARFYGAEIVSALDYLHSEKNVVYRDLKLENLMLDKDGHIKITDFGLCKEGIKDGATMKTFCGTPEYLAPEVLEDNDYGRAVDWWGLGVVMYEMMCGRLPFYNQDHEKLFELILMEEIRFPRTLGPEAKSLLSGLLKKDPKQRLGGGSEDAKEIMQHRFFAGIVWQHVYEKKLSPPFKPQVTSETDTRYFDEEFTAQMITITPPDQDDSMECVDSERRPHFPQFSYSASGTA
How it was run: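 Insect-cell-expressed full-length His-Akt1 (~0.05 ng/μl) preincubated 15 min with compound, then reacted 60 min at 22 °C with 10 μM ATP and 1 μM biotinylated peptide (final), pH 7.5. Phosphopeptide detected by HTRF (665/620 nm ratio). Data normalised to no-inhibitor and no-enzyme controls.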

Sequence of His-tagged human recombinant kinase full-length Akt2 activated by PDK1 (P31751 whole entry): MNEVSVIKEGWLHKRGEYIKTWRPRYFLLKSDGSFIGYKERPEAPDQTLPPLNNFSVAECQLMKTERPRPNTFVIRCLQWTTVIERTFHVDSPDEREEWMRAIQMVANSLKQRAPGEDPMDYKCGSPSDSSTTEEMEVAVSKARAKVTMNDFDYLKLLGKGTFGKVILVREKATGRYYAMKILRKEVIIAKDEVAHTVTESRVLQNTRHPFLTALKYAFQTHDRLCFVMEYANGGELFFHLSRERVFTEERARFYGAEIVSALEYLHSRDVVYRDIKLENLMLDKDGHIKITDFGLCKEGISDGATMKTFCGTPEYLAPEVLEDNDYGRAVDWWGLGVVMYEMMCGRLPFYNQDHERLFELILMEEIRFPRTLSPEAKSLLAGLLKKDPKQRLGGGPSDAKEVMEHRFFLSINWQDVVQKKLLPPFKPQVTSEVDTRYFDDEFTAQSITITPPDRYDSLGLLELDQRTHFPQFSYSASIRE

IC50 [1]	IC50 [2]	SMILES
1440 nM	186 nM	Fc1ccc(-c2cn3ccnc3nc2-c2ccc(CN3CCC(c4n[nH]c(-c5cnccn5)n4)CC3)cc2)cc1 [Example 52.2, 6-(4-fluorophenyl)-7-{4-[4-(5-pyrazine-2-yl-1H-[1,2,4]triazole-3-yl]-piperidine-1-ylmethyl]-phenyl}-imidazo[1,2-a]pyrimidine]
7 nM	11 nM	Cc1cccc(-c2nc(C3CCN(Cc4ccc(-c5nc6ncc(Br)n6cc5-c5ccc(F)cc5)cc4)CC3)n[nH]2)n1 [Example 53.0, 3-bromo-6-(4-fluorophenyl)-7-(4-{4-[5-(6-methylpyridine-2-yl)-1H-[1,2,4]triazole-3-yl]-piperidine-1-ylmethyl}-phenyl)-imidazo[1,2-a]pyrimidine]
33 nM	25 nM	Fc1ccc(-c2cn3c(Cl)cnc3nc2-c2ccc(CN3CCC(c4n[nH]c(-c5ccccn5)n4)CC3)cc2)cc1 [Example 53.1, 3-chloro-6-(4-fluorophenyl)-7-{4-[4-(5-pyridine-2-yl-1H-[1,2,4]triazole-3-yl)-piperidine-1-ylmethyl]-phenyl}-imidazo[1,2-a]pyrimidine]
17 nM	3 nM	Cc1cccc(-c2nc(C3CCN(Cc4ccc(-c5nc6nccn6cc5-c5ccccc5F)cc4)CC3)n[nH]2)n1 [Example 54.0, 6-(2-fluorophenyl)-7-(4-{4-[5-(6-methylpyridine-2-yl)-1H-[1,2,4]triazole-3-yl]-piperidine-1-ylmethyl}-phenyl)-imidazo[1,2-a]pyrimidine]
14 nM	6 nM	Brc1cnc2nc(-c3ccc(CN4CC(c5n[nH]c(-c6ccccn6)n5)C4)cc3)c(-c3ccccc3)cn12 [Example 55.0, 3-bromo-6-phenyl-7-{4-{3-[5-(pyridine-2-yl)-1H-[1,2,4]triazole-3-yl)-azetidine-1-ylmethyl]-phenyl}-imidazo[1,2-a]pyrimidine]
47 nM	10 nM	Cc1cn2cc(-c3ccccc3)c(-c3ccc(CN4CC(c5n[nH]c(-c6ccccn6)n5)C4)cc3)nc2n1 [Example 56.0, 2-methyl-6-phenyl-7-{4-{3-[5-(pyridine-2-yl)-1H-[1,2,4]triazole-3-yl)-azetidine-1-ylmethyl]-phenyl}-imidazo[1,2-a]pyrimidine]
3 nM	6 nM	Cc1cccc(-c2nc(C3CN(Cc4ccc(-c5nc6nc(C)c(Br)n6cc5-c5ccccc5)cc4)C3)n[nH]2)n1 [Example 57.0, 3-bromo-2-methyl-7-{4-{3-[5-(6-methylpyridine-2-yl)-1H-[1,2,4]triazole-3-yl)-azetidine-1-ylmethyl]-phenyl}-6-phenyl-imidazo[1,2-a]pyrimidine]
476 nM	30 nM	CNc1c(-c2ccccc2)c(-c2ccc(CN3CC(c4n[nH]c(-c5ccccn5)n4)C3)cc2)nc2nccn12 [Example 58.0, methyl-(6-phenyl-7-{4-{3-[5-(pyridine-2-yl)-1H-[1,2,4]triazole-3-yl)-azetidine-1-ylmethyl]-phenyl}-imidazo[1,2-a]pyrimidin-5-yl)-amine]
128 nM	42 nM	CNc1c(-c2ccccc2)c(-c2ccc(CN3CC(c4n[nH]c(-c5ccccn5)n4)C3)cc2)nc2ncc(Br)n12 [Example 59.0, (3-bromo-6-phenyl-7-{4-{3-[5-(pyridine-2-yl)-1H-[1,2,4]triazole-3-yl)-azetidine-1-ylmethyl]-phenyl}-imidazo[1,2-a]pyrimidin-5-yl)-methylamine]
55 nM	16 nM	CNc1c(-c2ccccc2)c(-c2ccc(CN3CC(c4n[nH]c(-c5ccccn5)n4)C3)cc2)nc2nc(C)cn12 [Example 60.0, methyl-(2-methyl-6-phenyl-7-{4-{3-[5-(pyridine-2-yl)-1H-[1,2,4]triazole-3-yl)-azetidine-1-ylmethyl]-phenyl}-imidazo[1,2-a]pyrimidin-5-yl)-amine]
